Data taken from paper PMC10343355, “Finding the Right Solvent: A Novel Screening Protocol for Identifying Environmentally Friendly and Cost-Effective Options for Benzenesulfonamide” (Molecules, 2023).

Test: Shake-flask solubility of BSA in neat solvents and aqueous binary mixtures, spectrophotometric determination at 264 nm
Type: physicochemical
Conditions: for log(x1)exp: mole fraction solubility
Protocol: In order to determine the solubility of BSA in the studied solvents, excess amounts of it were added to test tubes pre-filled with a particular solvent or a binary mixture of this solvent and water in different molar proportions. Saturated solutions prepared in this manner were placed in an ES-20/60 Orbital Shaker Incubator from Biosan (Riga, Latvia) and incubated for 24 h at different temperatures. Four temperatures were used in the range from 25 °C to 40 °C with 5 °C intervals. The temperature in the incubator was adjusted with 0.1-degree accuracy with a 0.5-degree variance in a 24 h cycle. Simultaneously, the samples were mixed at 60 rev/min. In the next stage, the filtration of the samples took place, utilizing syringes equipped with PTFE filters with 0.22 µm pore size. Since the temperature difference between the measured solutions and used instruments can possibly lead to precipitation, all of the used test tubes, pipette tips, syringes, and filters were initially heated. This was carried out by placing them in the same incubator as the samples and heating them at exactly the same temperature prior to the handling of the samples. This was particularly important in the case of elevated temperatures, as the difference between, e.g., 40 °C and room temperature is quite extensive. Then, small amounts of the obtained filtrate were diluted in different test tubes containing methanol and measured spectrophotometrically. In order to determine the mole fractions of BSA in the samples, their density was also measured by weighing a 1 mL volume of each of the solutions, taken by using an Eppendorf Reference 2 pipette (Hamburg, Germany), in 10 mL volumetric flasks. The systematic error of the pipette was 6 μL. The precision of the RADWAG (Radom, Poland) AS 110.R2 PLUS analytical balance that was used in this study was 0.1 mg. The A360 spectrophotometer from AOE Instruments (Shanghai, China) was used for solubility determination. The spectra were recorded in the 190 nm to 400 nm wavelength range with a 1 nm resolution. Methanol was used for both the dilution of the samples and the initial calibration of the spectrophotometer. The analytical wavelength was determined to be 264 nm, and the absorbance of the samples at this wavelength was used for the determination of the BSA concentration in the samples and the subsequent calculation of its mole fractions. Three separate measurements were used, and the resulting values were averaged. The calibration curve for BSA was generated by preparing successive dilutions of an initial stock solution and performing spectrophotometric measurements of the resulting solutions with decreasing concentrations. The molar concentrations of measured solutions were 3.19 × 10^−3, 2.84 × 10^−3, 2.46 × 10^−3, 2.13 × 10^−3, 1.88 × 10^−3, 1.60 × 10^−3, 1.26 × 10^−3, 9.53 × 10^−4, 5.70 × 10^−4, and 4.80 × 10^−4 M). The relationship between the absorbance values at 264 nm and the solution concentration was described by the linear equation A = 470.86 × C + 0.0093 (A—absorbance; C—molar concentration), with a determination coefficient R^2 equal 0.9996, denoting high linearity.

Compound: NS(=O)(=O)c1ccccc1 [BSA, Benzenesulfonamide]
- solubility, X^exp × 10^3 (4FM+water, x2*(4FM)=0.2, 298.15 K): 23.42 ± 0.86 mole fraction × 10^3
- solubility, X^exp × 10^3 (4FM+water, x2*(4FM)=0.2, 303.15 K): 32.61 ± 1.65 mole fraction × 10^3
- solubility, X^exp × 10^3 (4FM+water, x2*(4FM)=0.2, 308.15 K): 48.14 ± 1.59 mole fraction × 10^3
- solubility, X^exp × 10^3 (4FM+water, x2*(4FM)=0.2, 313.15 K): 69.19 ± 2.56 mole fraction × 10^3
- solubility, X^exp × 10^3 (4FM+water, x2*(4FM)=0.4, 298.15 K): 45.67 ± 0.33 mole fraction × 10^3
- solubility, X^exp × 10^3 (4FM+water, x2*(4FM)=0.4, 303.15 K): 68.93 ± 1.12 mole fraction × 10^3
- solubility, X^exp × 10^3 (4FM+water, x2*(4FM)=0.4, 308.15 K): 102.78 ± 3.56 mole fraction × 10^3
- solubility, X^exp × 10^3 (4FM+water, x2*(4FM)=0.4, 313.15 K): 142.57 ± 6.01 mole fraction × 10^3
- solubility, X^exp × 10^3 (4FM+water, x2*(4FM)=0.6, 298.15 K): 61.48 ± 0.85 mole fraction × 10^3
- solubility, X^exp × 10^3 (4FM+water, x2*(4FM)=0.6, 303.15 K): 101.16 ± 0.91 mole fraction × 10^3
- solubility, X^exp × 10^3 (4FM+water, x2*(4FM)=0.6, 308.15 K): 146.31 ± 6.19 mole fraction × 10^3
- solubility, X^exp × 10^3 (4FM+water, x2*(4FM)=0.6, 313.15 K): 196.38 ± 7.85 mole fraction × 10^3
- solubility, X^exp × 10^3 (4FM+water, x2*(4FM)=0.8, 298.15 K): 68.53 ± 0.63 mole fraction × 10^3
- solubility, X^exp × 10^3 (4FM+water, x2*(4FM)=0.8, 303.15 K): 118.09 ± 6.45 mole fraction × 10^3
- solubility, X^exp × 10^3 (4FM+water, x2*(4FM)=0.8, 308.15 K): 178.71 ± 6.67 mole fraction × 10^3
- solubility, X^exp × 10^3 (4FM+water, x2*(4FM)=0.8, 313.15 K): 242.26 ± 2.09 mole fraction × 10^3
- solubility, X^exp × 10^3 (DMF+water, x2*(DMF)=0.2, 298.15 K): 42.18 ± 0.83 mole fraction × 10^3
- solubility, X^exp × 10^3 (DMF+water, x2*(DMF)=0.2, 303.15 K): 46.69 ± 1.75 mole fraction × 10^3
- solubility, X^exp × 10^3 (DMF+water, x2*(DMF)=0.2, 308.15 K): 54.78 ± 1.76 mole fraction × 10^3
- solubility, X^exp × 10^3 (DMF+water, x2*(DMF)=0.2, 313.15 K): 63.21 ± 1.40 mole fraction × 10^3
- solubility, X^exp × 10^3 (DMF+water, x2*(DMF)=0.4, 298.15 K): 161.16 ± 3.97 mole fraction × 10^3
- solubility, X^exp × 10^3 (DMF+water, x2*(DMF)=0.4, 303.15 K): 179.12 ± 10.87 mole fraction × 10^3
- solubility, X^exp × 10^3 (DMF+water, x2*(DMF)=0.4, 308.15 K): 202.07 ± 2.93 mole fraction × 10^3
- solubility, X^exp × 10^3 (DMF+water, x2*(DMF)=0.4, 313.15 K): 233.72 ± 14.10 mole fraction × 10^3
- solubility, X^exp × 10^3 (DMF+water, x2*(DMF)=0.6, 298.15 K): 231.63 ± 6.50 mole fraction × 10^3
- solubility, X^exp × 10^3 (DMF+water, x2*(DMF)=0.6, 303.15 K): 253.07 ± 9.75 mole fraction × 10^3
- solubility, X^exp × 10^3 (DMF+water, x2*(DMF)=0.6, 308.15 K): 281.23 ± 1.05 mole fraction × 10^3
- solubility, X^exp × 10^3 (DMF+water, x2*(DMF)=0.6, 313.15 K): 319.28 ± 11.90 mole fraction × 10^3
- solubility, X^exp × 10^3 (DMF+water, x2*(DMF)=0.8, 298.15 K): 268.17 ± 4.27 mole fraction × 10^3
- solubility, X^exp × 10^3 (DMF+water, x2*(DMF)=0.8, 303.15 K): 286.69 ± 8.71 mole fraction × 10^3
- solubility, X^exp × 10^3 (DMF+water, x2*(DMF)=0.8, 308.15 K): 317.90 ± 8.49 mole fraction × 10^3
- solubility, X^exp × 10^3 (DMF+water, x2*(DMF)=0.8, 313.15 K): 356.68 ± 8.53 mole fraction × 10^3
- solubility, X^exp × 10^3 (DMSO+water, x2*(DMSO)=0.2, 298.15 K): 35.84 ± 1.56 mole fraction × 10^3
- solubility, X^exp × 10^3 (DMSO+water, x2*(DMSO)=0.2, 303.15 K): 40.39 ± 0.41 mole fraction × 10^3
- solubility, X^exp × 10^3 (DMSO+water, x2*(DMSO)=0.2, 308.15 K): 45.37 ± 0.84 mole fraction × 10^3
- solubility, X^exp × 10^3 (DMSO+water, x2*(DMSO)=0.2, 313.15 K): 50.66 ± 1.03 mole fraction × 10^3
- solubility, X^exp × 10^3 (DMSO+water, x2*(DMSO)=0.4, 298.15 K): 136.28 ± 5.21 mole fraction × 10^3
- solubility, X^exp × 10^3 (DMSO+water, x2*(DMSO)=0.4, 303.15 K): 153.75 ± 0.89 mole fraction × 10^3
- solubility, X^exp × 10^3 (DMSO+water, x2*(DMSO)=0.4, 308.15 K): 175.06 ± 5.16 mole fraction × 10^3
- solubility, X^exp × 10^3 (DMSO+water, x2*(DMSO)=0.4, 313.15 K): 198.55 ± 12.9 mole fraction × 10^3
- solubility, X^exp × 10^3 (DMSO+water, x2*(DMSO)=0.6, 298.15 K): 257.01 ± 5.42 mole fraction × 10^3
- solubility, X^exp × 10^3 (DMSO+water, x2*(DMSO)=0.6, 303.15 K): 279.84 ± 7.39 mole fraction × 10^3
- solubility, X^exp × 10^3 (DMSO+water, x2*(DMSO)=0.6, 308.15 K): 307.25 ± 8.78 mole fraction × 10^3
- solubility, X^exp × 10^3 (DMSO+water, x2*(DMSO)=0.6, 313.15 K): 335.53 ± 2.01 mole fraction × 10^3
- solubility, X^exp × 10^3 (DMSO+water, x2*(DMSO)=0.8, 298.15 K): 301.83 ± 4.01 mole fraction × 10^3
- solubility, X^exp × 10^3 (DMSO+water, x2*(DMSO)=0.8, 303.15 K): 324.42 ± 10.85 mole fraction × 10^3
- solubility, X^exp × 10^3 (DMSO+water, x2*(DMSO)=0.8, 308.15 K): 352.69 ± 7.04 mole fraction × 10^3
- solubility, X^exp × 10^3 (DMSO+water, x2*(DMSO)=0.8, 313.15 K): 381.96 ± 8.16 mole fraction × 10^3
- solubility, X^exp × 10^3 (DMSO+water, x2*=0.0 (neat water), 298.15 K): 0.56 ± 0.03 mole fraction × 10^3
- solubility, X^exp × 10^3 (DMSO+water, x2*=0.0 (neat water), 303.15 K): 0.83 ± 0.01 mole fraction × 10^3
- solubility, X^exp × 10^3 (DMSO+water, x2*=0.0 (neat water), 308.15 K): 1.17 ± 0.04 mole fraction × 10^3
- solubility, X^exp × 10^3 (DMSO+water, x2*=0.0 (neat water), 313.15 K): 1.53 ± 0.03 mole fraction × 10^3
- log(x1)exp (solvent 4-Formylmorpholine, T 25.00 °C): -1.16
- log(x1)exp (solvent 4-Formylmorpholine, T 30.00 °C): -0.88
- log(x1)exp (solvent 4-Formylmorpholine, T 35.00 °C): -0.70
- log(x1)exp (solvent 4-Formylmorpholine, T 40.00 °C): -0.55
- log(x1)exp (solvent DMF, T 25.00 °C): -0.54
- log(x1)exp (solvent DMF, T 30.00 °C): -0.51
- log(x1)exp (solvent DMF, T 35.00 °C): -0.47
- log(x1)exp (solvent DMF, T 40.00 °C): -0.42
- log(x1)exp (solvent DMSO, T 25.00 °C): -0.50
- log(x1)exp (solvent DMSO, T 30.00 °C): -0.47
- log(x1)exp (solvent DMSO, T 35.00 °C): -0.43
- log(x1)exp (solvent DMSO, T 40.00 °C): -0.40
- log(x1)exp (solvent water, T 25.00 °C): -3.25
- log(x1)exp (solvent water, T 30.00 °C): -3.08
- log(x1)exp (solvent water, T 35.00 °C): -2.93
- log(x1)exp (solvent water, T 40.00 °C): -2.82
- solubility, X^exp × 10^3 (x2*=1.0 (neat 4FM), 298.15 K): 69.45 ± 0.49 mole fraction × 10^3
- solubility, X^exp × 10^3 (x2*=1.0 (neat 4FM), 303.15 K): 132.21 ± 4.61 mole fraction × 10^3
- solubility, X^exp × 10^3 (x2*=1.0 (neat 4FM), 308.15 K): 200.82 ± 7.43 mole fraction × 10^3
- solubility, X^exp × 10^3 (x2*=1.0 (neat 4FM), 313.15 K): 279.66 ± 2.42 mole fraction × 10^3
- solubility, X^exp × 10^3 (x2*=1.0 (neat DMF), 298.15 K): 288.65 ± 1.99 mole fraction × 10^3
- solubility, X^exp × 10^3 (x2*=1.0 (neat DMF), 303.15 K): 308.50 ± 5.81 mole fraction × 10^3
- solubility, X^exp × 10^3 (x2*=1.0 (neat DMF), 308.15 K): 336.89 ± 13.52 mole fraction × 10^3
- solubility, X^exp × 10^3 (x2*=1.0 (neat DMF), 313.15 K): 378.60 ± 8.94 mole fraction × 10^3
- solubility, X^exp × 10^3 (x2*=1.0 (neat DMSO), 298.15 K): 319.77 ± 2.83 mole fraction × 10^3
- solubility, X^exp × 10^3 (x2*=1.0 (neat DMSO), 303.15 K): 342.67 ± 5.19 mole fraction × 10^3
- solubility, X^exp × 10^3 (x2*=1.0 (neat DMSO), 308.15 K): 369.38 ± 9.57 mole fraction × 10^3
- solubility, X^exp × 10^3 (x2*=1.0 (neat DMSO), 313.15 K): 402.31 ± 9.04 mole fraction × 10^3
